Test results published in article PMC4920590, “GPR142 Controls Tryptophan-Induced Insulin and Incretin Hormone Secretion to Improve Glucose Metabolism” (PLoS ONE, 2016).
pEC50: −log10 of the molar value. Like-named read-outs stand apart in the source and are kept apart here.

Columns and labels:
human GPR142 = molecular target: T1, human GPR142 (Homo sapiens, UniProt Q7Z601); test: IP-1 accumulation assay in HEK293 cells stably expressing human GPR142; type: cell-based; settings: for pEC50: IP-1 accumulation, 1 hour, read-out: HEK293-hGPR142 EC50; for HEK293-hGPR142 EC50 (Emax): activity call, tested 170 nM to 30 mM
T1 construct: expressed in transfected cells
T1 sequence (Q7Z601 1-374 isoform Q7Z601-2): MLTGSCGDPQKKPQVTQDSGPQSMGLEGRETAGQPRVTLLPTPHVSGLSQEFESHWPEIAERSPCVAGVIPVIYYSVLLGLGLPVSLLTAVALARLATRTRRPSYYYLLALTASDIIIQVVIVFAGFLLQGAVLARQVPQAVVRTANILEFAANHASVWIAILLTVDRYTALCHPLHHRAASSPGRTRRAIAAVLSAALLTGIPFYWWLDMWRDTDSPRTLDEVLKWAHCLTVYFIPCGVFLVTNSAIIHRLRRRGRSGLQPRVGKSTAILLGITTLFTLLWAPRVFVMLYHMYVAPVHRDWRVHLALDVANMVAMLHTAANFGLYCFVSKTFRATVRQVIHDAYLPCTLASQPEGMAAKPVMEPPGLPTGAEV
Protocol: (§1) HEK293 cells obtained from ATCC were used to generate cell lines stably expressing human GPR142 or mouse Gpr142 by transfecting cells with pcDNA3.1 expression vectors containing each cDNA. Cells expanded from single clones were maintained in DMEM containing 10% fetal bovine serum (FBS) and 800 μg/ml G418. Untransfected control HEK293 cells were maintained in DMEM containing 10% FBS. Cells were plated in 384 well plates at 5000 cells per well and allowed 18 hours for attachment. After addition of compounds, cells were incubated for 1 hour. IP-1 measurements were performed using an HTRF assay kit (Cisbio) according to manufacturer’s protocol using assay buffer containing 1 × HBSS (Hank’s Balanced Salt Solution, +Ca, +Mg), 0.1% bovine serum albumin (BSA), 50 mM LiCl and 20 mM HEPES (4-(2-hydroxyethyl)-1-piperazineethanesulfonic acid), pH 7.2. The reaction was stopped by addition of IP1-d2 followed by cryptate solution and the plates were incubated at 25°C for 1 hour. Fluorescence was read in an Envision instrument at 665 nm and 620 nm. The ratio of 665 nm/620 nm was calculated and converted to IP-1 levels using a standard curve method. The data was fit to 4-parameter fit logistics to determine EC50 values.

[1] = Glucose tolerance test (IPGTT/OGTT) after oral dosing in mice; type: in vivo, mouse
Protocol: (§2) Mice were fasted overnight and allowed free access to water. […] Tail blood glucose levels were measured at indicated time points using handheld glucometers. For incretin hormone measurements, blood was collected via cardiac bleeds into EDTA-tubes containing DPP-4 inhibitor (Millipore) and protease inhibitor cocktail (Thermo Fisher). For insulin measurements during GTT, blood was collected from the tail.

[2] = Plasma insulin and incretin hormone levels after oral dosing in mice; type: in vivo, mouse
Protocol: as §2
Immunoassays were used to measure total GIP (Millipore, ELISA), total GLP-1, and insulin (Meso Scale Discovery). Enzymatic assays were used to measure TG, beta-hydroxybutarate (Sigma-Aldrich), and total cholesterol (Thermo Fisher). HDL-cholesterol was determined in the supernatant after removal of LDL/vLDL-cholesterol by a precipitation reagent (Sigma-Aldrich); non-HDL-cholesterol was determined by subtracting HDL from total cholesterol. Free fatty acids were measured by GC-MS.

murine pancreatic islets = test: Insulin secretion in isolated murine pancreatic islets (WT and Gpr142 KO); type: cell-based, mouse; settings: 11.1 mM glucose, 1 hour
Protocol: Secretion was stopped by refrigerating the plates at 4°C for 3 minutes. Supernatant was removed from the wells and assayed for insulin levels using the MA6000 Mouse/Rat Insulin Kit (Meso Scale Discovery).

human pancreatic islets = test: Insulin secretion in isolated human pancreatic islets; type: cell-based; settings: 11 mM glucose, 1 hour, non-diabetic donor
Excerpt: Human pancreatic islets were purchased from Prodo Labs at the Scharp-Lacy Research Institute (Irvine, CA, www.prodolabs.com) through the Integrated Islet Distribution Program in accordance with internal review board (IRB) ethical guidelines for use of human tissue. Islets were isolated at Prodo Labs from human pancreata from listed cadaver organ donors that were refused for primary human pancreas transplantation or isolated islets transplantion into listed diabetic recipients. […] The next day day islets were incubated for 30 min in EBSS buffer containing 0.1% BSA and 3 mM glucose. […] Islets were cultured for 60 min at 37°C. The incubation was stopped by chilling the samples on ice. The culture media was removed and stored at -20°C until its insulin concentration was measured. Insulin was measured using a custom built immunoassay (Meso Scale Discovery).

mouse GPR142 = molecular target: T2, mouse GPR142 (Mus musculus, UniProt Q7TQN9); test: IP-1 accumulation assay in HEK293 cells stably expressing mouse Gpr142; type: cell-based; settings: for Emax: HEK293, relative efficacy normalized to maximal response of L-Tryptophan (100%), read-out: HEK293-mGPR142 Emax; for pEC50: IP-1 accumulation, 1 hour, read-out: HEK293-mGPR142 EC50
T2 sequence (Q7TQN9 67-365 limits assumed): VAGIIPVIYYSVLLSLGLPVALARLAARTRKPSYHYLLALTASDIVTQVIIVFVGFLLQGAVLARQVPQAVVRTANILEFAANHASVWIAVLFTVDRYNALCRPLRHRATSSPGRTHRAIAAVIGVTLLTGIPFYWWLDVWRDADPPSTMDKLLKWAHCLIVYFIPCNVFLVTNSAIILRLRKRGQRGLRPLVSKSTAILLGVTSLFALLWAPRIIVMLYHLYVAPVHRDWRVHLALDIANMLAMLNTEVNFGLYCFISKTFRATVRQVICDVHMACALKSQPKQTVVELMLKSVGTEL
Protocol: as §1

[3] = 30 mg/kg p.o., normal C57 mice, fasted state and after oral glucose challenge
[4] = HEK293, relative efficacy normalized to maximal response of L-Tryptophan (100%), read-out: HEK293-hGPR142 Emax
[5] = 500 mg/kg p.o. 15 minutes prior to glucose 2 g/kg i.p.
[6] = 500 mg/kg p.o., 10 minutes after dosing, vs WT

N[C@@H](Cc1c[nH]c2ccc(O)cc12)C(=O)O [5-OH L-Tryptophan]
pEC50 (human GPR142; 170 nM to 30 mM): 1.92 | HEK293-hGPR142 Emax (human GPR142; relative efficacy normalized to maximal response of L-Tryptophan (100%)): 34%

CCCc1c(C(=O)NCc2cncn2C)cnn1-c1ncc(C)c(-c2cccs2)n1 [Compound A, N-[(3-methylimidazol-4-yl)methyl]-1-[5-methyl-4-(2-thienyl)pyrimidin-2-yl]-5-propyl-pyrazole-4-carboxamide]
glucose excursion during OGTT and IPGTT ([1]; p.o. 30 minutes before glucose 2 g/kg, OGTT 10 mg/kg diet-induced obese C57 mice, IPGTT 30 mg/kg): robust suppression of glucose excursion | plasma insulin during glucose tolerance test ([2]; 10 mg/kg p.o., diet-induced obese C57 mice, 15 minutes after glucose challenge): increase in plasma insulin | meal induced GIP, GLP-1, and insulin levels ([2]; 30 mg/kg p.o. 30 minutes prior to oral mixed meal challenge (Ensure-plus 10 mL/kg), C57 mice): additional stimulatory effects | effects on plasma hormones and glycemia in Gpr142 KO mice ([2]; 30 mg/kg p.o., KO mice): completely absent | plasma GIP level [2, 3]: significantly increased | plasma GLP-1 level [2, 3]: significantly increased | insulin secretion in WT murine islets (murine pancreatic islets): stimulated ex vivo insulin secretion | insulin secretion in human primary islets (human pancreatic islets): stimulated ex vivo insulin secretion | Emax (human GPR142; [4]): 90% | pEC50 (human GPR142; 0.17 nM to 30 μM): 8.15 | Emax (mouse GPR142): 90% | pEC50 (mouse GPR142; 0.17 nM to 30 μM): 9.06

N[C@H](Cc1c[nH]c2ccccc12)C(=O)O [D-Tryptophan]
Emax (human GPR142; [4]): 29% | pEC50 (human GPR142; 170 nM to 30 mM): 2.46 | significant activation of GPR142 signaling at concentrations below 10 mM (human GPR142; Table 1): None

NCC(=O)O [Glycine]
HEK293-hGPR142 EC50 (Emax) (human GPR142): Inactive

C[C@H](N)C(=O)O [L-Alanine]
HEK293-hGPR142 EC50 (Emax) (human GPR142): Inactive

N=C(N)NCCC[C@H](N)C(=O)O [L-Arginine]
Emax (human GPR142; HEK293, read-out: HEK293-hGPR142 Emax): 23% | pEC50 (human GPR142; 170 nM to 30 mM): < 1.70

NC(=O)C[C@H](N)C(=O)O [L-Asparagine]
HEK293-hGPR142 EC50 (Emax) (human GPR142): Inactive

N[C@@H](CC(=O)O)C(=O)O [L-Aspartic Acid]
Emax (human GPR142; [4]): 41% | pEC50 (human GPR142; 170 nM to 30 mM): < 1.70

N[C@@H](CS)C(=O)O [L-Cysteine]
HEK293-hGPR142 EC50 (Emax) (human GPR142): Inactive

N[C@@H](CCC(=O)O)C(=O)O [L-Glutamic Acid]
HEK293-hGPR142 EC50 (Emax) (human GPR142): Inactive

NC(=O)CC[C@H](N)C(=O)O [L-Glutamine]
HEK293-hGPR142 EC50 (Emax) (human GPR142): Inactive

N[C@@H](Cc1c[nH]cn1)C(=O)O [L-Histidine]
HEK293-hGPR142 EC50 (Emax) (human GPR142): Inactive

CC[C@H](C)[C@H](N)C(=O)O [L-Isoleucine]
HEK293-hGPR142 EC50 (Emax) (human GPR142): Inactive

Nc1ccccc1C(=O)C[C@H](N)C(=O)O [L-Kynurenine]
Emax (human GPR142; [4]): 18% | pEC50 (human GPR142; 170 nM to 30 mM): 1.92

CC(C)C[C@H](N)C(=O)O [L-Leucine]
HEK293-hGPR142 EC50 (Emax) (human GPR142): Inactive

NCCCC[C@H](N)C(=O)O [L-Lysine]
Emax (human GPR142; [4]): 20% | pEC50 (human GPR142; 170 nM to 30 mM): 1.80

CSCC[C@H](N)C(=O)O [L-Methionine]
HEK293-hGPR142 EC50 (Emax) (human GPR142): Inactive

N[C@@H](Cc1ccccc1)C(=O)O [L-Phenylalanine]
glucose excursion during IPGTT in Gpr142 KO mice [1, 5]: clearly present | glucose excursion during IPGTT in WT mice [1, 5]: clearly present | GIP release in Gpr142 KO mice [2, 6]: blunted | insulin release in Gpr142 KO mice [2, 6]: blunted | plasma GLP-1 in Gpr142 KO mice [2, 6]: increased GLP-1 in KO mice to a similar extent as in WT | insulin secretion in Gpr142 KO islets compared with WT islets (murine pancreatic islets): not significantly different | insulin secretion in WT murine islets (murine pancreatic islets): more modest | IP-1 accumulation in HEK-hGPR142 cells (human GPR142; Fig 1A, 1B): has an effect in this assay at concentrations comparable to that of L-Trp | Emax (human GPR142; [4]): 96% | pEC50 (human GPR142; 170 nM to 30 mM): 2.46 | Emax (mouse GPR142): 92% | potency on mouse GPR142 relative to L-Trp (fold less potent) (mouse GPR142; HEK293 cell-based IP-1 assay): 4 to 5 fold | pEC50 (mouse GPR142; 170 nM to 30 mM): 2.55

O=C(O)[C@@H]1CCCN1 [L-Proline]
HEK293-hGPR142 EC50 (Emax) (human GPR142): Inactive

N[C@@H](CO)C(=O)O [L-Serine]
HEK293-hGPR142 EC50 (Emax) (human GPR142): Inactive

C[C@@H](O)[C@H](N)C(=O)O [L-Threonine]
HEK293-hGPR142 EC50 (Emax) (human GPR142): Inactive

N[C@@H](Cc1ccc(O)cc1)C(=O)O [L-Tyrosine]
Emax (human GPR142; [4]): 14% | pEC50 (human GPR142; 170 nM to 30 mM): 1.80

CC(C)[C@H](N)C(=O)O [L-Valine]
HEK293-hGPR142 EC50 (Emax) (human GPR142): Inactive

NCCc1c[nH]c2ccccc12 [Trytamine]
HEK293-hGPR142 EC50 (Emax) (human GPR142): Inactive
